From patent publication US20240254103A9, “NOVEL PYRIMIDINE DERIVATIVE, AND COMPOSITION FOR PREVENTING OR TREATING NEURODEGENERATIVE DISEASES AND CANCER, COMPRISING SAME” (WHAN IN PHARMACEUTICAL CO., LTD., priority 2020, published 2024)

Molecular target: T1, wild-type LRRK2 (Homo sapiens, UniProt Q5S007)
T1 construct: DNA tag for qPCR detection (not a peptide; the protein part that carries it is not described); made in house; host or cells: HEK 293 cells (the same paragraph also describes T7 phage grown in E. coli BL21)
T1 sequence (Q5S007 970-2527): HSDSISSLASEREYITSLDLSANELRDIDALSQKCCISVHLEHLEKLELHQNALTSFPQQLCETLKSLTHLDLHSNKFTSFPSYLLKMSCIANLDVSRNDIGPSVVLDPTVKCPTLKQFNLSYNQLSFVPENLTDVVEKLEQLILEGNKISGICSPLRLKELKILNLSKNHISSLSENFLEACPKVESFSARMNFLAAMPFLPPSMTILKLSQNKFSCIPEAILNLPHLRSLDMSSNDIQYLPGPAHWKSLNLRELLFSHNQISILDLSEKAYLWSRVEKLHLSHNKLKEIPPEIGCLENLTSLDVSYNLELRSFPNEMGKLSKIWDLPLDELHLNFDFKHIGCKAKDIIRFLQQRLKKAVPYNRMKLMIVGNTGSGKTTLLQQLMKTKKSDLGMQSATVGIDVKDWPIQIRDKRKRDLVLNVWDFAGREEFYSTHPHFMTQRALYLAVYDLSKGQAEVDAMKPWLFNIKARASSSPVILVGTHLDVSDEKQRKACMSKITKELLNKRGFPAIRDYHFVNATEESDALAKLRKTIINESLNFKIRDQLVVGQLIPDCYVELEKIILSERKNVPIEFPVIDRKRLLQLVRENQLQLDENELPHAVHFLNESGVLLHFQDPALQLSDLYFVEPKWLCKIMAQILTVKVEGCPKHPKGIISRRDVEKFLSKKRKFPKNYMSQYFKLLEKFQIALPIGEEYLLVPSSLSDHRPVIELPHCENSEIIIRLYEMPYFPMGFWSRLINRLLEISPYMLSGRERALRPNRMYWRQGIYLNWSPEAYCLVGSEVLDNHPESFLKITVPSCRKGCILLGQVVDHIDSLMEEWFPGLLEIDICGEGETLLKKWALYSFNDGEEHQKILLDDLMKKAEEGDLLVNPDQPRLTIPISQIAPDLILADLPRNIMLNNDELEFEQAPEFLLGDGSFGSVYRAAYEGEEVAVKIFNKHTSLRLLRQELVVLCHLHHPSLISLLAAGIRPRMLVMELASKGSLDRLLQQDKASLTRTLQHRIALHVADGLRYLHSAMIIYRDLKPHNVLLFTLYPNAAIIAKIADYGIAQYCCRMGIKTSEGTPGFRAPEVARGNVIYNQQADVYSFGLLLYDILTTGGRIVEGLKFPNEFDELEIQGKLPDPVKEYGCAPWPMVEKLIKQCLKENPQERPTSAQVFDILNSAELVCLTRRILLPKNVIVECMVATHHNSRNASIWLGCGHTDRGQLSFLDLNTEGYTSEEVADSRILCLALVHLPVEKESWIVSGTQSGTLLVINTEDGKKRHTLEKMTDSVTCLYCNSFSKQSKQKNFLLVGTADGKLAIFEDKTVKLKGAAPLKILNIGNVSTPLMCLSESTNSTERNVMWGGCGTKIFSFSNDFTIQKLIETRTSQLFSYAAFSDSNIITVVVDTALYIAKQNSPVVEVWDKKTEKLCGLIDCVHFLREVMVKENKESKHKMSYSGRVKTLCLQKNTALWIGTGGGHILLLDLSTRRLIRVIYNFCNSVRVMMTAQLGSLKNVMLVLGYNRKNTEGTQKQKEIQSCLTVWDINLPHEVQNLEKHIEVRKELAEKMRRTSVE
Experiment: Inhibitory activity against LRRK2: competition binding to ligand-affinity beads, DNA-tagged kinase quantitated by qPCR
Conditions: % of ctrl; for remaining binding at 0.01 µM: 10 nM compound, read-out: LRRK2(WT) Remaining kinase activity(%) at 10 nM; for remaining binding at 0.05 µM: 50 nM compound, read-out: LRRK2(WT) Remaining kinase activity(%) at 50 nM
Procedure: Representative compounds synthesized in Example 1 were assayed for inhibitory activity against wild-type LRRK2 and mutant LRRK2 (G2019S), and the results are summarized in Tables 2 and 3. In brief, a T7 phase strain carrying the wild-type kinase consisting of amino acid residues from H970 to E2527 of human-derived LRRK2 (Accession no. NP_940980.3) or a T7 phase strain carrying the G2019S mutation kinase was infected into E. coli strain BL21 which was then grown until log phase. After infection with T7 phases (multiplicity of infection=0.4), the cells were cultured at 32° C. for 90-150 minutes while shaking. Then, E. coli lysates were centrifuged (6,000×g) and the supernatant was filtered through a 0.2-μm filter. The kinases were produced in HEK 293 cells. In this regard, DNA was tagged to obtain DNA-tagged kinases for qPCR detection. For use in analyzing the kinases, affinity resins were prepared by treating streptavidin-coated magnetic beads with biotinylated small molecule ligands at room temperature for 30 minutes. Then, the liganded beads were blocked with an excess of biotin and washed with a blocking buffer (SeaBlock (Pierce), 1% BSA, 0.05% Tween 20, 1 mM DTT) to remove unbound ligands and thus to reduce the binding of non-specific phages. […] After one hour of incubation, the affinity beads were washed with a wash buffer (1×PBS, 0.05% Tween 20), resuspended in an elution buffer (1×PBS, 0.05% Tween 20, 0.5 μM non-biotinylated affinity ligand), and incubated at room temperature for 30 minutes while shaking. Afterwards, concentrations of wild-type LRRK2 and mutant LRRK2 (G2019S) in the eluted samples were quantitated by qPCR. Activity values are expressed as percentages relative to the control (% of ctrl). The compounds used in the activity assay were prepared into 40× stocks in 100% DMSO. The stocks were directly diluted during analysis procedures.
Table 2 includes inhibitory activities of the representative compounds of the present disclosure at 100 nM against wild-type LRRK2 and mutant LRRK2 (G2019S) while Table 3 includes inhibitory activities of the representative compounds at 10 nM and 50 nM against wild-type LRRK2. (+++ less than 10%; ++ less than 30%; + less than 50%; −50% or higher)

Structure (SMILES) | remaining binding at 0.01 µM [%] | remaining binding at 0.05 µM [%]
COc1cc(C(=O)N2[C@@H]3CC[C@H]2COC3)ccc1Nc1ncc(Cl)c(-c2cnn(C(C)C)c2)n1 [Compound 95, ((1R,5S)-3-oxa-8-azabicyclo[3.2.1]octan-8-yl)(4-((5-chloro-4-(1-isopropyl-1H-pyrazol-4-yl)pyrimidin-2-yl)amino)-3-methoxyphenyl)methanone] | ≥ 50 | < 30
COc1cc(C(=O)NC2CCN(C)CC2)ccc1Nc1ncc(Cl)c(-c2cnn(C(C)(C)C)c2)n1 [Compound 96, 4-((4-(1-(tert-butyl)-1H-pyrazol-4-yl)-5-chloropyrimidin-2-yl)amino)-3-methoxy-N -(1-methylpiperidin-4-yl)benzamide] | ≥ 50 | < 30
COc1cc(C(=O)N2CC3CN(C)CC3C2)ccc1Nc1ncc(Cl)c(-c2cnn(C(C)C)c2)n1 (stereo not drawn) [Compound 98, (4-((5-chloro-4-(1-isopropyl-1H-pyrazol-4-yl)pyrimidin-2-yl)amino)-3-methoxyphenyl)(5-methylhexahydropyrrolo[3,4-c]pyrrol-2(1H)-yl)methanone] | < 30 | < 10
COc1cc(C(=O)NC2CCN(C(C)C)CC2)ccc1Nc1ncc(Cl)c(-c2cnn(C(C)C)c2)n1 [Compound 99, 4-((5-chloro-4-(1-isopropyl-1H-pyrazol-4-yl)pyrimidin-2-yl)amino)-N-(1-isopropylpiperidin-4-yl)-3-methoxybenzamide] | < 50 | < 30
COc1cc(C(=O)N(C)C)ccc1Nc1ncc(Cl)c(-c2cnn(C(C)C)c2)n1 [Compound 101, 4-((5-chloro-4-(1-isopropyl-1H-pyrazol-4-yl)pyrimidin-2-yl)amino)-3-methoxy-N,N-dimethylbenzamide] | ≥ 50 | < 50
COc1cc(C(=S)N2CCN(C)CC2)c(F)cc1Nc1ncc(Cl)c(-c2cnn(C(C)C)c2)n1 [Compound 102, (4-((5-chloro-4-(1-isopropyl-1H-pyrazol-4-yl)pyrimidin-2-yl)amino)-2-fluoro-5-methoxyphenyl)(4-methylpiperazin-1-yl) methanethione] | < 50 | < 10
COc1cc(C(=S)N2CCN(C)CC2)ccc1Nc1ncc(Cl)c(-c2cnn(C(C)C)c2)n1 [Compound 103, (4-((5-chloro-4-(1-isopropyl-1H-pyrazol-4-yl)pyrimidin-2-yl)amino)-3-methoxyphenyl)(4-methylpiperazin-1-yl) methanethione] | < 30 | < 10
COc1cc(C(=O)N2CCN(C)CC2)c(F)cc1Nc1ncc(Cl)c(-c2cnn(C(C)C)c2)n1 [Compound 104, (4-((5-chloro-4-(1-isopropyl-1H-pyrazol-4-yl)pyrimidin-2-yl)amino)-2-fluoro-5-methoxyphenyl)(4-methylpiperazin-1-yl)methanone] | ≥ 50 | < 30
CC(C)n1cc(-c2nc(Nc3ccc(C(=O)N4CCOCC4)cc3OC(F)F)ncc2Cl)cn1 [Compound 105, (4-((5-chloro-4-(1-isopropyl-1H-pyrazol-4-yl)pyrimidin-2-yl)amino)-3-(difluoromethoxy)phenyl)(morpholino)methanone] | < 50 | < 30
COc1cc(C(=S)N2CCOCC2)c(F)cc1Nc1ncc(Cl)c(-c2cnn(C(C)C)c2)n1 [Compound 106, (4-((5-chloro-4-(1-isopropyl-1H-pyrazol-4-yl)pyrimidin-2-yl)amino)-2-fluoro-5-methoxyphenyl)(morpholino) methanethione] | ≥ 50 | < 30
CC(C)n1cc(-c2nc(Nc3ccc(C(=O)N4CCN(C)CC4)cc3OC(F)F)ncc2Cl)cn1 [Compound 108, (4-((5-chloro-4-(1-isopropyl-1H-pyrazol-4-yl)pyrimidin-2-yl)amino)-3-(difluoromethoxy)phenyl)(4-methylpiperazin-1-yl)methanone] | ≥ 50 | < 30
Cc1cc(C(=O)N2CCN(C)CC2)ccc1Nc1ncc(Cl)c(-c2cnn(C(C)C)c2)n1 [Compound 109, (4-((5-chloro-4-(1-isopropyl-1H-pyrazol-4-yl)pyrimidin-2-yl)amino)-3-methylphenyl)(4-methylpiperazin-1-yl)methanone] | ≥ 50 | < 30
COc1cc(C(=O)N2CCC(N(C)C)CC2)c(F)cc1Nc1ncc(Cl)c(-c2cnn(C(C)C)c2)n1 [Compound 110, (4-((5-chloro-4-(1-isopropyl-1H-pyrazol-4-yl)pyrimidin-2-yl)amino)-2-fluoro-5-methoxyphenyl)(4-(dimethylamino)piperidin-1-yl)methanone] | < 50 | < 10
COc1cc(C(=O)Nc2ccccc2)ccc1Nc1ncc(Cl)c(-c2cnn(C(C)C)c2)n1 [Compound 112, 4-((5-chloro-4-(1-isopropyl-1H-pyrazol-4-yl)pyrimidin-2-yl)amino)-3-methoxy-N-phenylbenzamide] | < 50 | < 30
COc1cc(C(=O)NCc2ccc(C)cc2)ccc1Nc1ncc(Cl)c(-c2cnn(C(C)C)c2)n1 [Compound 126, 4-((5-chloro-4-(1-isopropyl-1H-pyrazol-4-yl)pyrimidin-2-yl)amino)-3-methoxy-N-(4-methylbenzyl)benzamide] | ≥ 50 | < 50
COc1cc(C(=O)Nc2ccc(N(C)C)cc2)ccc1Nc1ncc(Cl)c(-c2cnn(C(C)C)c2)n1 [Compound 127, 4-((5-chloro-4-(1-isopropyl-1H-pyrazol-4-yl)pyrimidin-2-yl)amino)-N-(4-(dimethylamino)phenyl)-3-methoxybenzamide] | < 50 | < 30
COc1cc(C(=O)NCc2ccc(C#N)cc2)ccc1Nc1ncc(Cl)c(-c2cnn(C(C)C)c2)n1 [Compound 128, 4-((5-chloro-4-(1-isopropyl-1H-pyrazol-4-yl)pyrimidin-2-yl)amino)-N-(4-cyanobenzyl)-3-methoxybenzamide] | ≥ 50 | < 50
COc1cc(C(=O)NC2Cc3ccccc3C2)ccc1Nc1ncc(Cl)c(-c2cnn(C(C)C)c2)n1 [Compound 129, 4-((5-chloro-4-(1-isopropyl-1H-pyrazol-4-yl)pyrimidin-2-yl)amino)-N-(2,3-dihydro-1H-inden-2-yl)-3-methoxybenzamide] | ≥ 50 | < 50
COc1cc(C(=O)NCC2CCOC2)ccc1Nc1ncc(Cl)c(-c2cnn(C(C)C)c2)n1 (stereo not drawn) [Compound 130, 4-((5-chloro-4-(1-isopropyl-1H-pyrazol-4-yl)pyrimidin-2-yl)amino)-3-methoxy-N-((tetrahydrofuran-3-yl)methyl)benzamide] | ≥ 50 | < 30
COc1cc(C(=O)NCCO)ccc1Nc1ncc(Cl)c(-c2cnn(C(C)C)c2)n1 [Compound 138, 4-((5-chloro-4-(1-isopropyl-1H-pyrazol-4-yl)pyrimidin-2-yl)amino)-N-(2-hydroxyethyl)-3-methoxybenzamide] | ≥ 50 | < 50
COCCNC(=O)c1ccc(Nc2ncc(Cl)c(-c3cnn(C(C)C)c3)n2)c(OC)c1 [Compound 140, 4-((5-chloro-4-(1-isopropyl-1H-pyrazol-4-yl)pyrimidin-2-yl)amino)-3-methoxy-N-(2-methoxyethyl)benzamide] | ≥ 50 | < 30
COc1cc(C(=O)N(C)CCO)ccc1Nc1ncc(Cl)c(-c2cnn(C(C)C)c2)n1 [Compound 141, 4-((5-chloro-4-(1-isopropyl-1H-pyrazol-4-yl)pyrimidin-2-yl)amino)-N-(2-hydroxyethyl)-3-methoxy-N-methylbenzamide] | ≥ 50 | < 30
COc1cc(C(=O)Nc2ccc(Cl)cc2)ccc1Nc1ncc(Cl)c(-c2cnn(C(C)C)c2)n1 [Compound 151, 4-((5-chloro-4-(1-isopropyl-1H-pyrazol-4-yl)pyrimidin-2-yl)amino)-N-(4-chlorophenyl)-3-methoxybenzamide] | ≥ 50 | < 50
COc1cc(C(=O)NCc2cccc(O)c2)ccc1Nc1ncc(Cl)c(-c2cnn(C(C)C)c2)n1 [Compound 152, 4-((5-chloro-4-(1-isopropyl-1H-pyrazol-4-yl)pyrimidin-2-yl)amino)-N-(3-hydroxybenzyl)-3-methoxybenzamide] | ≥ 50 | < 30
